Legend:
Assay in all cases: Test B pre-/postemergence plant response
Format in all cases: in vivo
[1] = system: downy bromegrass (Bromus tectorum); details: for Bromegrass, Downy plant response rating (0 to 100 scale): 62 g ai/ha, 0 is no effect, 13 to 15 days
Procedure, shortened: (§1)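 Pre-em in loam/sand; post-em at 1–4 leaf (2–18 cm) in peat mix. Solvent + surfactant formulation. Greenhouse 13–15 d; visual % control vs untreated, 0–100.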

[2] = system: giant foxtail (Setaria faberii); details: for Foxtail, Giant plant response rating (0 to 100 scale): 62 g ai/ha, 0 is no effect, 13 to 15 days
Procedure, shortened: as §1

[3] = system: goosegrass (Eleusine indica); details: for Goosegrass plant response rating (0 to 100 scale): 62 g ai/ha, 0 is no effect, 13 to 15 days
Procedure, shortened: as §1

[4] = system: green foxtail (Setaria viridis); details: for Foxtail, Green plant response rating (0 to 100 scale): 62 g ai/ha, 0 is no effect, 13 to 15 days
Procedure, shortened: as §1

[5] = system: johnsongrass (Sorghum halepense); details: for Johnsongrass plant response rating (0 to 100 scale): 62 g ai/ha, 0 is no effect, 13 to 15 days
Procedure, shortened: as §1

kochia (Kochia scoparia) = details: for Kochia plant response rating (0 to 100 scale): 62 g ai/ha, 0 is no effect, 13 to 15 days
Procedure, shortened: as §1

[6] = system: lambsquarters (Chenopodium album); details: for Lambsquarters plant response rating (0 to 100 scale): 62 g ai/ha, 0 is no effect, 13 to 15 days
Procedure, shortened: as §1

[7] = system: large crabgrass (Digitaria sanguinalis); details: for Crabgrass, Large plant response rating (0 to 100 scale): 62 g ai/ha, 0 is no effect, 13 to 15 days
Procedure, shortened: as §1

[8] = system: pigweed (Amaranthus retroflexus); details: for Pigweed plant response rating (0 to 100 scale): 62 g ai/ha, 0 is no effect, 13 to 15 days
Procedure, shortened: as §1

[9] = system: velvetleaf (Abutilon theophrasti); details: for Velvetleaf plant response rating (0 to 100 scale): 62 g ai/ha, 0 is no effect, 13 to 15 days
Procedure, shortened: as §1

[10] = system: wheat (Triticum aestivum); details: for Wheat plant response rating (0 to 100 scale): 62 g ai/ha, 0 is no effect, 13 to 15 days
Procedure, shortened: as §1

[11] = system: woolly cupgrass (Eriochloa villosa); details: for Cupgrass, Woolly plant response rating (0 to 100 scale): 62 g ai/ha, 0 is no effect, 13 to 15 days
Procedure, shortened: as §1

[12] = system: yellow nutsedge (Cyperus esculentus); details: for Nutsedge, Yellow plant response rating (0 to 100 scale): 62 g ai/ha, 0 is no effect, 13 to 15 days
Procedure, shortened: as §1

[13] = 31 g ai/ha, postemergence, scale 0 to 100, 0 is no effect, 100 is complete control
[14] = postemergence, 100 is complete control
[15] = Postemergence, 125 g ai/ha, visual rating after 13 to 15 days, scale 0 (no effect) to 100 (complete control)
[16] = Postemergence, 250 g ai/ha, scale 0 to 100 (0 no effect, 100 complete control)

Cc1ccc(-c2ncc(C(=O)C3=C(O)CCCC3=O)c(=O)n2-c2ccccc2)cc1 [Compound 80]
Plant response rating, Bromegrass, Downy [1, 13]: 45
Bromegrass, Downy plant response rating (0 to 100 scale) [1, 14]: 60
Plant response rating, Bromegrass, Downy [1, 15]: 60
Plant response rating, Bromegrass, Downy [1, 16]: 80
Plant response rating, Foxtail, Giant [2, 13]: 75
Foxtail, Giant plant response rating (0 to 100 scale) [2, 14]: 90
Plant response rating, Foxtail, Giant [2, 15]: 95
Plant response rating, Foxtail, Giant [2, 16]: 95
Plant response rating, Goosegrass [3, 13]: 70
Goosegrass plant response rating (0 to 100 scale) [3, 14]: 75
Plant response rating, Goosegrass [3, 15]: 80
Plant response rating, Goosegrass [3, 16]: 85
Plant response rating, Foxtail, Green [4, 13]: 90
Foxtail, Green plant response rating (0 to 100 scale) [4, 14]: 95
Plant response rating, Foxtail, Green [4, 15]: 95
Plant response rating, Foxtail, Green [4, 16]: 98
Plant response rating, Johnsongrass [5, 13]: 0
Johnsongrass plant response rating (0 to 100 scale) [5, 14]: 0
Plant response rating, Johnsongrass [5, 15]: 10
Plant response rating, Johnsongrass [5, 16]: 45
Plant response rating, Kochia (kochia (Kochia scoparia); [13]): 0
Kochia plant response rating (0 to 100 scale) (kochia (Kochia scoparia); [14]): 20
Plant response rating, Kochia (kochia (Kochia scoparia); [15]): 20
Plant response rating, Kochia (kochia (Kochia scoparia); [16]): 60
Plant response rating, Lambsquarters [6, 13]: 95
Lambsquarters plant response rating (0 to 100 scale) [6, 14]: 95
Plant response rating, Lambsquarters [6, 15]: 98
Plant response rating, Lambsquarters [6, 16]: 100
Plant response rating, Crabgrass, Large [7, 13]: 75
Crabgrass, Large plant response rating (0 to 100 scale) [7, 14]: 80
Plant response rating, Crabgrass, Large [7, 15]: 90
Plant response rating, Crabgrass, Large [7, 16]: 95
Plant response rating, Pigweed [8, 13]: 100
Pigweed plant response rating (0 to 100 scale) [8, 14]: 100
Plant response rating, Pigweed [8, 15]: 100
Plant response rating, Pigweed [8, 16]: 100
Plant response rating, Velvetleaf [9, 13]: 85
Velvetleaf plant response rating (0 to 100 scale) [9, 14]: 100
Plant response rating, Velvetleaf [9, 15]: 100
Plant response rating, Velvetleaf [9, 16]: 100
Plant response rating, Wheat [10, 13]: 5
Wheat plant response rating (0 to 100 scale) [10, 14]: 10
Plant response rating, Wheat [10, 15]: 20
Plant response rating, Wheat [10, 16]: 35
Plant response rating, Cupgrass, Woolly [11, 13]: 65
Cupgrass, Woolly plant response rating (0 to 100 scale) [11, 14]: 70
Plant response rating, Cupgrass, Woolly [11, 15]: 70
Plant response rating, Cupgrass, Woolly [11, 16]: 75
Plant response rating, Nutsedge, Yellow [12, 13]: 10
Nutsedge, Yellow plant response rating (0 to 100 scale) [12, 14]: 15
Plant response rating, Nutsedge, Yellow [12, 15]: 55
Plant response rating, Nutsedge, Yellow [12, 16]: 75

Cc1ccccc1-c1ncc(C(=O)C2=C(O)CCCC2=O)c(=O)n1-c1ccccc1 [Compound 82]
Plant response rating, Bromegrass, Downy [1, 13]: 0
Bromegrass, Downy plant response rating (0 to 100 scale) [1, 14]: 0
Plant response rating, Bromegrass, Downy [1, 15]: 5
Plant response rating, Bromegrass, Downy [1, 16]: 30
Plant response rating, Foxtail, Giant [2, 13]: 75
Foxtail, Giant plant response rating (0 to 100 scale) [2, 14]: 80
Plant response rating, Foxtail, Giant [2, 15]: 95
Plant response rating, Foxtail, Giant [2, 16]: 95
Plant response rating, Goosegrass [3, 13]: 75
Goosegrass plant response rating (0 to 100 scale) [3, 14]: 75
Plant response rating, Goosegrass [3, 15]: 80
Plant response rating, Goosegrass [3, 16]: 85
Plant response rating, Foxtail, Green [4, 13]: 60
Foxtail, Green plant response rating (0 to 100 scale) [4, 14]: 60
Plant response rating, Foxtail, Green [4, 15]: 85
Plant response rating, Foxtail, Green [4, 16]: 90
Plant response rating, Johnsongrass [5, 13]: 65
Johnsongrass plant response rating (0 to 100 scale) [5, 14]: 80
Plant response rating, Johnsongrass [5, 15]: 80
Plant response rating, Johnsongrass [5, 16]: 95
Plant response rating, Kochia (kochia (Kochia scoparia); [13]): 10
Kochia plant response rating (0 to 100 scale) (kochia (Kochia scoparia); [14]): 60
Plant response rating, Kochia (kochia (Kochia scoparia); [15]): 65
Plant response rating, Kochia (kochia (Kochia scoparia); [16]): 75
Plant response rating, Lambsquarters [6, 13]: 80
Lambsquarters plant response rating (0 to 100 scale) [6, 14]: 95
Plant response rating, Lambsquarters [6, 15]: 100
Plant response rating, Lambsquarters [6, 16]: 100
Plant response rating, Crabgrass, Large [7, 13]: 70
Crabgrass, Large plant response rating (0 to 100 scale) [7, 14]: 75
Plant response rating, Crabgrass, Large [7, 15]: 80
Plant response rating, Crabgrass, Large [7, 16]: 90
Plant response rating, Pigweed [8, 13]: 75
Pigweed plant response rating (0 to 100 scale) [8, 14]: 98
Plant response rating, Pigweed [8, 15]: 100
Plant response rating, Pigweed [8, 16]: 100
Plant response rating, Velvetleaf [9, 13]: 85
Velvetleaf plant response rating (0 to 100 scale) [9, 14]: 90
Plant response rating, Velvetleaf [9, 15]: 90
Plant response rating, Velvetleaf [9, 16]: 95
Plant response rating, Wheat [10, 13]: 0
Wheat plant response rating (0 to 100 scale) [10, 14]: 0
Plant response rating, Wheat [10, 15]: 0
Plant response rating, Wheat [10, 16]: 5
Plant response rating, Cupgrass, Woolly [11, 13]: 55
Cupgrass, Woolly plant response rating (0 to 100 scale) [11, 14]: 55
Plant response rating, Cupgrass, Woolly [11, 15]: 65
Plant response rating, Cupgrass, Woolly [11, 16]: 75
Plant response rating, Nutsedge, Yellow [12, 13]: 10
Nutsedge, Yellow plant response rating (0 to 100 scale) [12, 14]: 15
Plant response rating, Nutsedge, Yellow [12, 15]: 45
Plant response rating, Nutsedge, Yellow [12, 16]: 55

Reference: patent US8952024B2, “Herbicidal pyrimidone derivatives” (E I du Pont de Nemours and Company, priority 2009, dated 2015)
